For test [1] the following is noted: compared with resveratrol; Rimando et al., 2002; Stivala et al., 2001; cited from earlier work.
Test [2] has as its target T1, peroxisome proliferator-activated alpha isoform, (PPARα) (Homo sapiens, UniProt Q07869).
T1 sequence (Q07869 1-468): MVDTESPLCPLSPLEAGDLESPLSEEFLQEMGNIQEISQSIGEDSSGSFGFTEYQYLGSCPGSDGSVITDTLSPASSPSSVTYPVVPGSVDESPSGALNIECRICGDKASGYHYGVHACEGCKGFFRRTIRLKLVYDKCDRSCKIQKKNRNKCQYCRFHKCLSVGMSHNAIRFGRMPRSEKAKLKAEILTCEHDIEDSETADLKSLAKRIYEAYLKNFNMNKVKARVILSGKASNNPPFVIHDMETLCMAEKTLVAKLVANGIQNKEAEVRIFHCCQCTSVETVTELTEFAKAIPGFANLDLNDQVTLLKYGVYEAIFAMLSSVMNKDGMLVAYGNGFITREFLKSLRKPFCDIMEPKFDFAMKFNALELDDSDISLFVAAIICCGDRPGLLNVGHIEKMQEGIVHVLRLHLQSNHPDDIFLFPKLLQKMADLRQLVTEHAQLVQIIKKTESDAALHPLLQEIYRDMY
Conditions: Rimando et al., 2005; cited from earlier work.

The next test deals with weanling male F344 rats. The settings on record: Suh et al., 2007; cited from earlier work.
Another test has as its target T2, cyclooxygenase-2 (Homo sapiens, UniProt P35354).
T2 sequence (P35354 18-604): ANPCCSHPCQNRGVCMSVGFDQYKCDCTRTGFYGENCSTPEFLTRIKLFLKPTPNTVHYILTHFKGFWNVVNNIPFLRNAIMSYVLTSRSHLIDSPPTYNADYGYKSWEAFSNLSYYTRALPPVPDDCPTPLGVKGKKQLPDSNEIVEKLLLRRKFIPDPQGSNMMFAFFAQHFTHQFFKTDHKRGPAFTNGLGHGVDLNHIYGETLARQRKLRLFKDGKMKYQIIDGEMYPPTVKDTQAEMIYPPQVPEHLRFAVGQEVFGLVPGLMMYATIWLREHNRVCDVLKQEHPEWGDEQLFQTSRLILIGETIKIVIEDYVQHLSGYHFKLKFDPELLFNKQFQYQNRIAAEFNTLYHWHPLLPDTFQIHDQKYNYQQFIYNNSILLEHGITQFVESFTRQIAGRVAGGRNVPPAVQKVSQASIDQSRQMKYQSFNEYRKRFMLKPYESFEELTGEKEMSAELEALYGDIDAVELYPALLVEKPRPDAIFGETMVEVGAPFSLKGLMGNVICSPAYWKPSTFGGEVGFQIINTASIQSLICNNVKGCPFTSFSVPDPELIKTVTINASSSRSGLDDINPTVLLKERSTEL
Conditions: Rimando et al., 2002; cited from earlier work.

In test [3] the test system is M1-transfected COS-7 cells. Kind of test: Calcium recovery in M1-transfected COS-7 cells after dopamine treatment and oxotremorine-induced depolarization. The class given is cell-based, African green monkey. Conditions: 10 μg/ml pre-treatment 45 min, then 1 mM dopamine 4 hours; 750 μM oxotremorine depolarization. The procedure: COS-7 cells, a cell line derived from African green monkey kidney, were grown in Dulbecco's Modified Eagle's Medium (D-MEM) supplemented with 10% fetal bovine serum (FBS) and containing 100 U/ml penicillin and 100 μg/ml streptomycin sulfate. Twenty four hours prior to transfection, cells were harvested with trypsin, counted, and plated on […] tissue culture plates at 5×10^6 cells/plate. Cells were transiently transfected with rat muscarinic receptor subtype 1 DNA by the DEAE-dextran method. After transfection, cells were incubated 2.5 hours in growth medium containing 80 μM chloroquine to minimize degradation of the DNA. Transfected cells were then maintained in growth medium for 48 hours, harvested with trypsin, plated to coverslips in 35 mm plates for calcium imaging, and incubated overnight.
Dis. 6:403-411, and hereby incorporated by reference. The BB extract and stilbenes were dissolved in growth media and cells were subsequently incubated for 45 minutes at 37° C. with the treated growth medium, followed by dopamine administration for 4 hours. Following these incubations, the cells were washed three times with extract-free growth medium prior to testing.
Calcium imaging was carried out using a Medical Systems Corp. open perfusion micro-incubator (37° C.) with temperature control that was mounted on the stage of a Nikon Eclipse TE200U microscope and illuminated with a fluorescent light source. Transfected cells were loaded with Fura-2/acetoxymethyl ester (2 μM) in loading medium (99% DMEM 1% FES) for 40 minutes at 37° C. with 5% CO2.
Real time analyses of calcium flux prior to and following 750 μM oxotremorine-induced depolarization were then carried out using Simple PCI software (Compix, Inc. Mars, Pa.). Response and recovery were then determined for each sample. […] Recovery was determined by assessing the time (within 300 sec) for the Ca^2+ levels to return to 20% of the increase following depolarization in the cells that responded. Data was analyzed by Kruskal-Wallis one-way analysis of variance and Mann-Whitney U tests.

Structures are written as SMILES.

On to `COc1cc(/C=C/c2ccc(O)cc2)cc(OC)c1` [pterostilbene, trans-3,5-dimethoxy-4′-hydroxystilbene], for which the antioxidant activity entry in test [1] is “antioxidant activity similar to that of resveratrol”. For the same compound, the “activation of PPARα” value in test [2] is recorded as “identified to activate”. The “azoxymethane-induced colonic aberrant crypt foci growth” value in the test on weanling male F344 rats is listed as “suppressed azoxymethane-induced colonic aberrant crypt foci growth”. For the same compound, at cyclooxygenase-2, the “inhibition of cyclooxygenase-2” value is given as “weak inhibition”. In addition, in test [3], the “protection against dopamine-induced decreases in Ca2+ Recovery” value is recorded as “protected against the dopamine-induced decreases in Recovery”.

The record behind these values is patent US9028887B2, “Method improve spatial memory via pterostilbene administration” (The United States of America, as represented by the …, priority 2007, dated 2015).
